# In article PMC6780721, “GOBP1 Plays a Key Role in Sex Pheromones and Plant Volatiles Recognition in Yellow Peach Moth, Conogethes punctiferalis (Lepidoptera: Crambidae)” (Insects, 2019):
# Where two headings read alike, the source gives them in different places.
# How the values were obtained:
# GOBP1 = GOBP1 (Conogethes punctiferalis, UniProt A0A2H4FXX2); assay: Fluorescence competitive binding assay with 1-NPN, recombinant GOBP1; details: for Intensity (%) GOBP1: 1-NPN fluorescence remaining in competitive binding, 2 µM protein, 2 µM 1-NPN, triplicates; for interaction with GOBP1 (in words): fluorescence binding assays, sex pheromones
# Chain of GOBP1 (A0A2H4FXX2 entry or part of it): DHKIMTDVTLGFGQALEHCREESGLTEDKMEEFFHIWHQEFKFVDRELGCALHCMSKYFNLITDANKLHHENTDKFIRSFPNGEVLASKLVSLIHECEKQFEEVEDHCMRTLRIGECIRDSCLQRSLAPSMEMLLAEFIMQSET
# Description: (§1) Signal peptides were removed from complete ORF sequences of both genes and primers were designed, using antennal cDNA as the templates the GOBP1 and 2 were amplified and cloned using pEASY-T vector (TransGen Biotech, Beijing, China). The sense and antisense primers designed for GOBP1 and GOBP2. GOBP1 sense primers: 5′-[…]-3′ and antisense primer: 5′-[…]-3′ (BamH I and Hind III restriction sites are underlined); GOBP2 sense primer: 5′-[…]-3′ and antisense primer: 5′-[…]-3′ (EcoR I and Hind III restriction sites are underlined). The expected sequences were purified and cloned into the bacterial expression vector pET-30a (+) digested with the same enzymes. Then the plasmid was transformed into BL21 (DE3) competent cells (TransGen, Beijing, China) and the positive clone was inoculated in a liquid LB medium (4 L/protein) induced by 1 mM isopropyl-b-d-thiogalactoside (IPTG, Coollaber Science and Technology, Beijing, China) and placed in shaking incubator at 37 °C for 6 h. The induced bacterial cells were harvested from volume of 4 L liquid LB medium and centrifuged at 4 °C for 10 min (10,000 rpm). The pellets were subjected to ultrasonication and the recombinant GOBPs protein were purified by the Ni^2+-IDA column (His tagged) with a gradient concentration imidazole washing. The precipitate was resolved using 8 M carbamide and proteins were dialyzed in PBS buffer (pH 7.4) to remove the remaining chemical impurities from the protein. Purified protein concentrations of GOBP1 and GOBP2 was determined by the method of Bradford using BSA as standard The western blot method was performed to analyze the correct expression. […] The gel was sandwiched with a polyvinylidene fluoride (PVDF) membrane and sample in the gel was transferred to the PVDF (electrophoresis; 100 V, 200mA, 1 h). The film was washed four times using PBST (1% Tween-20 in 0.5 M Phosphate-buffered saline). 5% skim milk powder in PBST was used as blocking buffer. The PVDF membrane was incubated in primary antibody His (1:1000) and placed on shaker for overnight at 4 °C. The membrane was washed again using PBST and treated with second antibody sheep anti-rabbit antibody (1:5000) at 37 °C for 1 h. A final wash was given to the membrane and developed in ImageQuant LAS 4000 (GE, Pittsburgh, PA, USA) using western optimized HRP (horseradish peroxidase) reagent (Pierce, ELC kit, Thermoscientific, USA).
# (§2) The fluorescence intensity was recorded on a FluoroMax-4 spectrophotometer (Horiba Scientific, Piscataway, NJ, USA) at room temperature using a 1 cm light path fluorimeter quartz cuvette. The fluorescent probe N-phenyl-1-naphthylamine (1-NPN) and all the tested chemicals were dissolved in HPLC purity methanol. The final concentration was prepared 2 mM. […] The fluorescence of 1-NPN was excited at 337 nm and emission spectra were recorded between […]. […] The GraphPad Prism 5 (GraphPad Software, Inc. San Diego, CA) was used to estimate the K1-NPN (KD of complex protein /1-NPN) values by nonlinear regression for a unique site of binding. It was assumed that the proteins were 100% active, with a stoichiometry of 1:1 (protein:ligand) at saturation. […] In the equation, [1-NPN] in the free concentration of 1-NPN, and K1-NPN is the dissociation constant of the complex protein/1-NPN.
# GOBP2 = GOBP2 (Conogethes punctiferalis, UniProt A0A146JYY2); assay: Fluorescence competitive binding assay with 1-NPN, recombinant GOBP2; details: for Intensity (%) GOBP2: 1-NPN fluorescence remaining in competitive binding, 2 µM protein, 2 µM 1-NPN, triplicates
# Chain of GOBP2 (A0A146JYY2 entry or part of it): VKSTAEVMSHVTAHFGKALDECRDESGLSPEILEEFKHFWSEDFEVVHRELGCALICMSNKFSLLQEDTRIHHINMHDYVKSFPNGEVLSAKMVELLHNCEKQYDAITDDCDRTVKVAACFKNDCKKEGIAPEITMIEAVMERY
# Description: as §1, §2
# [1] = dissociation constant calculated from IC50: KD = [IC50]/(1+[1-NPN]/K1-NPN), pH 7.4, mean ± SD, read-out: KD (μM) GOBP1
# [2] = ligand concentration halving initial 1-NPN fluorescence, pH 7.4, mean ± SD, read-out: IC50 (μM) GOBP1
# [3] = dissociation constant calculated from IC50: KD = [IC50]/(1+[1-NPN]/K1-NPN), pH 7.4, mean ± SD, read-out: KD (μM) GOBP2
# [4] = ligand concentration halving initial 1-NPN fluorescence, pH 7.4, mean ± SD, read-out: IC50 (μM) GOBP2
Structure (SMILES),Kd (GOBP1),Kd (GOBP2),"Intensity (%) GOBP1 (GOBP1; pH 7.4, mean ± SD)",Kd (GOBP1; [1]),interaction with GOBP1 (in words) (GOBP1),IC50 (GOBP1; [2]),"Intensity (%) GOBP2 (GOBP2; pH 7.4, mean ± SD)",Kd (GOBP2; [3]),IC50 (GOBP2; [4]),IC50 (GOBP1),IC50 (GOBP2)
"c1ccc(Nc2cccc3ccccc23)cc1 [1-NPN, N-phenyl-1-naphthylamine, reference compound]",0.74 ± 0.41 µM,0.7 ± 0.38 µM,,,,,,,,,
"CCCCC/C=C\CCCCCCCCC=O [Z10-16:Ald, (Z)-10-hexadecenal]",,,20.88 ± 0.48%,1.2 ± 0.09 µM,can interact,2.82 ± 0.44 µM,58.63 ± 2.72%,3.58 ± 0.62 µM,8.65 ± 1.87 µM,,
C=C(C)[C@H]1CC=C(C)CC1 [Limonene],,,43.27 ± 2.47%,1.54 ± 0.39 µM,,3.62 ± 0.89 µM,92.62 ± 1.21%,14.7 ± 2.78 µM,35.5 ± 1.14 µM,,
CC1=CCC2CC1C2(C)C (stereo not drawn) [α-Pinene],4.73 ± 0.48 µM,28.1 ± 4.06 µM,64.96 ± 3.26%,,,,98.57 ± 1.13%,,,11.1 ± 3.47 µM,67.9 ± 4.66 µM
C=CC(C)(O)CCC=C(C)C (centres unmarked) [Linalool],6.7 ± 0.69 µM,18.5 ± 0.48 µM,74.52 ± 2.42%,,,,91.86 ± 0.71%,,,15.7 ± 1.61 µM,44.8 ± 1.16 µM
O=Cc1ccccc1 [Benzaldehyde],8.79 ± 0.59 µM,31.9 ± 3.03 µM,83.58 ± 6.61%,,,,94.76 ± 7.32%,,,20.6 ± 1.31 µM,77.1 ± 1.4 µM
CCCCCCCCCCC=O [Undecanal],,,78.33 ± 2.89%,7.17 ± 0.67 µM,,16.8 ± 2.41 µM,98.12 ± 1.92%,39.9 ± 9.7 µM,96.7 ± 2.41 µM,,
C=C1CCC2CC1C2(C)C (stereo not drawn) [β-Pinene],4.24 ± 0.69 µM,13.9 ± 1.36 µM,66.21 ± 2.96%,,,,97.15 ± 3.95%,,,9.94 ± 2.72 µM,33.7 ± 3.29 µM
CC/C=C\CCO [Cis-3-hexen-1-ol],33.5 ± 1.21 µM,21.2 ± 1.14 µM,94.99 ± 1.78%,,,,96.93 ± 0.99%,,,78.63 ± 0.23 µM,51.3 ± 1.6 µM
CCCCCO [1-Amyl alcohol],,,95.2 ± 1.12%,14.3 ± 1.74 µM,,33.5 ± 1.02 µM,96.54 ± 1.39%,,98.7 ± 2.3 µM,,
CCCCCCC=O [Heptanal],,,75.78 ± 5.17%,5.76 ± 0.64 µM,,13.5 ± 3.22 µM,96.80 ± 1.33%,23.1 ± 4.68 µM,56 ± 1.54 µM,,
CCCCCCCCCCCCCCO [1-Tetradecanol],2.05 ± 0.43 µM,22.3 ± 1.89 µM,45.8 ± 0.56%,,,,85.52 ± 1.47%,,,4.81 ± 0.72 µM,54 ± 2.56 µM
"CCCCC/C=C/CCCCCCCCC=O [E10-16:Ald, (E)-10-hexadecenal]",,,47.29 ± 7.52%,2.09 ± 0.45 µM,can interact,4.9 ± 0.54 µM,84.05 ± 2.25%,8.86 ± 0.93 µM,21.4 ± 4.15 µM,,
CC(C)=CCC/C(C)=C/CC/C(C)=C/CO [Farnesol],,,41.45 ± 2.51%,0.35 ± 0.04 µM,,0.83 ± 0.09 µM,55.64 ± 1.78%,1.64 ± 0.03 µM,3.98 ± 0.36 µM,,
CCCCCCCCC=O [Nonanal],,,71.04 ± 8.80%,5.69 ± 0.36 µM,,13.3 ± 2.41 µM,96.99 ± 2.63%,38.3 ± 1.09 µM,92.8 ± 3.83 µM,,
CCCCCCO [n-Hexanol],,,97.23 ± 0.89%,25.7 ± 0.43 µM,,60.4 ± 2.44 µM,94.24 ± 1.82%,,95.2 ± 1.68 µM,,
CCCCCC=O [n-Hexanal],,,45.50 ± 4.58%,3.11 ± 0.71 µM,,7.31 ± 1.43 µM,96.44 ± 1.50%,28.1 ± 0.62 µM,68.1 ± 3.7 µM,,
C=C1CC/C=C(\C)CC[C@@H]2[C@@H]1CC2(C)C [Caryophllene],,,68.98 ± 3.16%,3.88 ± 0.91 µM,,9.09 ± 2.42 µM,89.93 ± 2.15%,8.67 ± 1.12 µM,21 ± 2.1 µM,,
CCCCCCCCCCCCCCCC=O [Hexadecanal],,,48.64 ± 4.35%,0.55 ± 0.08 µM,,1.29 ± 0.14 µM,67.94 ± 1.79%,8.7 ± 0.74 µM,21.1 ± 1.83 µM,,
